From patent publication US12570614B2, “Phenyl amino pyrimidine compounds and uses thereof” (GlaxoSmithKline LLC, priority 2007, dated 2026)
Read-outs that look alike come from different tables or passages of the source.

How the values were obtained:
human JAK2 = human JAK2 (Homo sapiens (Human), UniProt O60674); assay: JAK2 kinase domain Alphascreen enzyme screening; type: biochemical; conditions: read-out: JAK2_IC50_nM
Description: (§1) For screening purposes, compounds (in 100% DMSO) were warmed at 37° C. for at least 20 minutes before use. A […] stock was initially made in assay buffer, where the final concentration of DMSO was 0.3%. The stocks were then diluted in 384 well Optiplates (Packard) where the final concentration of the compound was 5 μM.
The kinase domain of human JAK2 was amplified from U937 mRNA using the polymerase chain reaction with the following primers: […]
The JAK2 PCR products were cloned into the pDest20 destination vector (Gibco). The JAK2 plasmid was then transformed into competent DH10Bac cells (Gibco), and the recombinant baculovirus was prepared via Sf9 insect cell transfection.
(§2) Baculovirus preparations from each of the JAK family members were infected into one litre of […] (Spodoptera frugiperda) cells (Invitrogen) grown in SF900II serum free medium (Invitrogen) to a cell density of approximately 2×10^6 cells/ml. Cells were infected with virus at a cell culture to virus stock ratio of 20:1. Cells were harvested and lysed 48 hours post infection. The GST-tagged JAK kinase domains were purified by affinity chromatography on a GSH agarose column (Scientifix).
Alphascreen phosphotyrosine acceptor beads followed by streptavidin donor beads at a concentration of 1/100 in stop buffer were added to each well under subdued light and incubated for 2-3 hours. The Alphascreen plates were read on a Packard Fusion Alpha instrument

human JAK3 = human JAK3 (Homo sapiens (Human), UniProt P52333); assay: JAK3 kinase domain Alphascreen enzyme screening; type: biochemical; conditions: read-out: JAK3_ IC50_nM
Description: as §1
The kinase domain of human JAK3 was amplified from U937 mRNA using the polymerase chain reaction with the following primers: […]
The JAK3 PCR products were cloned into the pDest20 destination expression vector (Gibco). The JAK3 plasmid was then transformed into competent DH10Bac cells (Gibco), and the recombinant baculovirus was prepared via Sf9 insect cell transfection.
as §2
The compounds were then incubated with substrate in the presence of either […] ATP for 60 or 90 minutes. […] (final concentration 111 μM) or substrate-2 substrate with the sequence biotin-[…] [SEQ ID NO: 16] (final concentration 133 μM). Alphascreen phosphotyrosine acceptor beads followed by streptavidin donor beads at a concentration of 1/100 in stop buffer were added to each well under subdued light and incubated for 2-3 hours. The Alphascreen plates were read on a Packard Fusion Alpha instrument

[1] = tested on: BaF3 TELJAK cells (BafT_J2); assay: Cellular screening, BaF3 TELJAK2 cells (Alamar Blue); type: cell-based; conditions: Mus musculus
Description: (§3) For screening purposes, compounds were diluted in 96 well plates at a concentration of 20 μM. Plates were warmed at 37° C. for 30 minutes before the assay was performed.
A TEL/Jak2 fusion was generated by digestion of the TELPCR product with BamH I/Sal I restriction enzymes, digestion of the JAK2 PCR product with Sal I/Not I restriction enzymes, followed by ligation and subcloning of the ligation product into the mammalian expression Vector pTRE 2 (Clontech), which was prepared by digestion with BamH I—Not I restriction enzymes, to give the TEL/Jak2 fusion plasmid pTELJAK2.
(§4) The growth factor dependent myelomonocytic cell line BaF3 bearing the pTET-off plasmid (Clontech) was transfected with either pTELJAK2 or pTELJAK3, and the transfected cells were selected for growth-factor independent cell growth. The BaF3 wild-type cells were cultured in DMEM containing 10% FCS, 10% WEHI 3B conditioned medium. The BaF3 TELJAK cells ([…]) were cultured in DMEM 10% Tet-System Approved FBS (without WEHI 3B conditioned medium).
(§5) Cell suspensions were prepared by harvesting cells from culture (the cells used in this test were in late log phase growth with high viability.) Cells were diluted in the appropriate growth medium, as described above, to 1.1× final concentration (from 50,000 cell/mL to 200,000 cell/mL, depending on cell line).
(§6) Compounds to be tested were added (10 μL, 10× final concentration) to a flat bottomed 96-well plate. The cellular suspension (90 μL per well) was then added, and the plate incubated for 48-72 hr at 37° C., 5% CO2. Alamar Blue 10 μL per well was added and the plates returned to the incubator for a further 4-6 hours.
(§7) Result are given in table 2 where +++ is <1 μM, ++ is <5 μM and + is <20 μM

BaF3 wild-type cells = assay: Cellular screening, BaF3 wild-type cells (Alamar Blue); type: cell-based; conditions: Mus musculus, 48-72 hr incubation, read-out: BAF3wt_IC50_μM
Description: as §3, §4, §5
as §6, with “hours. The plates were then read at 544 nm.” for “hours.”
as §7

CTLL2 = assay: Cellular screening, CTLL2 cells (Alamar Blue); type: cell-based; conditions: Mus musculus, CTLL-2; 48-72 hr incubation; read-out: CTLL2_IC50_μM
Description: as §3, §5
as §6, with “hours. The plates were then read at 544 nm.” for “hours.”
as §7

Ba/F3 TelJAK2 cells = assay: Subcutaneous tumour model of Ba/F3 TelJAK2 cells in nude mice; type: in vivo, mouse; conditions: 5 mg/kg i.v. 3× weekly, after 14 days of dosing, t-test p<0.05
Description: Dosing commenced 11 days post-tumour cell inoculation, when tumours were palpable (mean tumour volume of 6 mm^3). Tumour dimensions were measured twice weekly.

[2] = BaF3, 48-72 hr incubation, read-out: BafT_J2_IC50_μM

Sequence of human JAK3 (P52333 822-1111): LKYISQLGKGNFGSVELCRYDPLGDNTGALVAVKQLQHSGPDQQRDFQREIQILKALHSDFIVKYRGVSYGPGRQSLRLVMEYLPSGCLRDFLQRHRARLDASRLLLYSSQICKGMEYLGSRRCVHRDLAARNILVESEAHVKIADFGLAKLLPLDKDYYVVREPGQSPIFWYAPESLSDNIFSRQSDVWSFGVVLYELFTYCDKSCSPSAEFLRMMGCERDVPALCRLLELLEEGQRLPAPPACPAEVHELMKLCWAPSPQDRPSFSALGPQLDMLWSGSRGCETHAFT
Sequence of human JAK2 (O60674 849-1124): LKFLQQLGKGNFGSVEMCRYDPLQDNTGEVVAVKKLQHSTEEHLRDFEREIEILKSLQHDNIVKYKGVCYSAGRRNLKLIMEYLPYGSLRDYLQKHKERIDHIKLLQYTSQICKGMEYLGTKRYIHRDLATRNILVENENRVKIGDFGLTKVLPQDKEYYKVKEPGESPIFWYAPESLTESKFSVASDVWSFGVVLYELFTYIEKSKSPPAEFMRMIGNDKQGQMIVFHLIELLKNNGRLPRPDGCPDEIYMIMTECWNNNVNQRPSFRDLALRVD

IC50 (human JAK2) [nM] | IC50 (human JAK3) [nM] | IC50 [1, 2] [nM] | IC50 (BaF3 wild-type cells) [nM] | Structure (SMILES) | IC50 (CTLL2) [nM] | IC50 ([1]; BaF3, read-out: BafT_J2_IC50_μM) [nM] | tumour volumes compared to Vehicle Control Treated Group (Ba/F3 TelJAK2 cells)
< 100 | < 1000 | < 5000 | < 5000 | N#CCC(=O)Nc1ccc(-c2ccnc(Nc3ccc(N4CCOCC4)cc3)n2)cc1C(F)(F)F [Compound 76, 2-cyano-N-(4-(2-(4-morpholinophenyl-amino)pyrimidin-4-yl)-2-(trifluoromethyl)phenyl)acetamide] | < 5000 |  | 
< 100 | < 500 | < 1000 | < 1000 | C=CCOCc1cc(Nc2nccc(-c3ccc(C(=O)NCC#N)cc3)n2)ccc1N1CCOCC1 [Compound 79] | < 5000 |  | 
< 100 | < 500 | < 1000 | < 5000 | CCN1CCC(Oc2ccc(Nc3nccc(-c4ccc(C(=O)NCC#N)cc4)n3)cc2)CC1 [Compound 80, N-(cyanomethyl)-4-(2-(4-(1-ethylpiperidin-4-yloxy)phenylamino)pyrimidin-4-yl)benzamide] | < 5000 |  | 
< 100 | > 1000 | < 1000 | < 5000 | CS(=O)(=O)N(CC#N)c1ccc(-c2ccnc(Nc3ccc(N4CCOCC4)c(F)c3)n2)cc1 [Compound 81, N-(cyanomethyl)-N-(4-(2-(3-fluoro-4-morpholinophenyl-amino)pyrimidin-4-yl)phenyl)methane-sulfonamide] | < 5000 |  | 
< 100 | > 1000 | < 1000 | < 5000 | CS(=O)(=O)N(CC#N)c1ccc(-c2ccnc(Nc3ccc(N4CCOCC4)c(C#N)c3)n2)cc1 [Compound 82, N-(4-(2-(3-cyano-4-morpholinophenyl-amino)pyrimidin-4-yl)phenyl)-N-(cyanomethyl) methanesulfonamide] | < 5000 |  | 
< 100 | < 500 | < 5000 | < 5000 | N#CCNC(=O)c1ccc(-c2ccnc(Nc3ccc(N4CCS(=O)(=O)CC4)cc3)n2)cc1 [Compound 89, N-(cyanomethyl)-4-(2-{[4-(1,1-dioxo-1λ^6,4-thiomorpholin-4-yl)phenyl]amino}pyrimidin-4-yl)benzamide] | < 5000 |  | 
 |  |  |  | CC(=O)O[C@H]1C(=O)[C@@]2(C)[C@H]([C@H](OC(=O)c3ccccc3)[C@]3(O)C[C@H](OC(=O)[C@H](O)[C@@H](NC(=O)c4ccccc4)c4ccccc4)C(C)=C1C3(C)C)[C@]1(OC(C)=O)CO[C@@H]1C[C@@H]2O [Taxol, reference compound] |  |  | smaller tumour volumes

Structure (SMILES) | IC50 (human JAK2) [nM] | IC50 (human JAK3) [nM] | IC50 [1, 2] [nM] | IC50 (BaF3 wild-type cells) [nM] | IC50 (CTLL2) [nM] | IC50 ([1]; BaF3, read-out: BafT_J2_IC50_μM) [nM] | tumour volumes compared to Vehicle Control Treated Group (Ba/F3 TelJAK2 cells)
N#CCNC(=O)c1ccc(-c2nc(Nc3ccc(N4CCOCC4)cc3)ncc2F)cc1 [Compound 93, N-(cyanomethyl)-4-(5-fluoro-2-(4-morpholinophenyl-amino)pyrimidin-4-yl)benzamide] | < 100 | < 500 |  | < 1000 | < 1000 | < 1000 | 
